Measurements reported in patent US5128330A, “Oxazinone substituted phosphines” (Biofor, Ltd., priority 1991, dated 1992).

Tested on: carrageenan-induced hind paw edema
Assay: Acute antiinflammatory activity, carrageenan-induced paw edema test
Type: in vivo, Male Sprague-Dawley rats
Conditions: dosed 1 h before carrageenan, paw volume 3 h after carrageenan, rats
Description: Anti-Inflammatory: This activity was evaluated using a modification of the carrageenan-induced paw edema test described by C. A. Winter et al in Proc. Soc. […] This assay measures the ability of the test compound to antagonize local edema, a characteristic of the inflammatory response.
Acute antiinflammatory activity was evaluated using the carrageenan-inducedpaw edema test described by C. A. Winter, et al in Proc. Soc.
Male Sprague-Dawley rats were divided into groups of six rats each. […] One hour after dosing with the test compounds, the left hind paws were injected with a 0.1 ml carrageenan solution (1% in distilled water, sterilized) intraplantarly. Three hours after carrageenan injection the volume of the injected paws was redetermined. Group means were also determined and the drug effect was calculated as percent inhibition of the hind paw edema according to the following equation: [formula]

SMILES	% Inhibition (percent inhibition of the hind paw edema) (100 mg (so in the source)) [%]	% Inhibition (percent inhibition of the hind paw edema) (100 mg/kg) [%]
CC(=O)Oc1ccccc1C(=O)O [Aspirin]	50	
CN1OCCC([P+](c2ccccc2)(c2ccccc2)c2ccccc2)C1=O (centres unmarked) [Example 1, (dihydro-N-methyl-2H-1,2-oxazin-3(4H)-oxo-4-yl)triphenylphosphonium bromide]		62
